Assay type in all cases: cell-based
One assay has as its system A549 cells. The assay is described as follows: Cell viability (MTS) assay in A549 cells. Particulars: Homo sapiens, 48 h. The protocol: To test the effect of the compounds in terms of cell growth regulation in lung cancer cell lines such as A549 and NCI-H1299 cells, these cells were treated in 96-well plates for 48 h with the compounds at concentrations ranging from 0 μM to 100 μM. […] Therefore, we decided to perform an additional experiment with 9c.
A549 and NCI-H1299 cells were seeded in 96-well plates at a density of 1 × 10^5 cells per well for 24 h before being exposed to compounds at various concentrations. After 48 h of compound treatment, the CellTiter 96 AQueous One Solution Cell Proliferation Assay Kit (Promega, Madison, WI, USA) was used to conduct a cell viability assay. The cells were incubated with solution reagents for 2 h at 37 °C before being measured for absorbance at 490 nm using a Synergy HTX Multi-Mode microplate reader (BioTek Instruments, Inc., Winooski, VT, USA).

Assay [1] deals with T1, hA1 AR (Homo sapiens, UniProt P30542).
T1 construct: host or cells: CHO-A1 (CHO cells expressing hA1 AR)
T1 sequence (P30542 1-326): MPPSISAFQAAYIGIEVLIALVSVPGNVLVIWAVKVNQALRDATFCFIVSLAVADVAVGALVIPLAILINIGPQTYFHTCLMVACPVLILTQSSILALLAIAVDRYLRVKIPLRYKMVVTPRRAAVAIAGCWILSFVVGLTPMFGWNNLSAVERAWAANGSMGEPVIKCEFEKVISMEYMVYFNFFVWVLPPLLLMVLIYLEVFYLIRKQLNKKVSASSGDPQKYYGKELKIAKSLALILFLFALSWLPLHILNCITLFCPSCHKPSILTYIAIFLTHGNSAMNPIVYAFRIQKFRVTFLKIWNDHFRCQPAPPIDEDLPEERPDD
The assay is described as follows: cAMP accumulation assay, antagonist mode, hA1 AR. Particulars: in presence of NECA, CHO-A1 cells. The text has this:
(§1) To determine whether 1,3,5-triazine scaffold derivatives behave as agonists or antagonists, we performed cAMP accumulation assays with 11a and 11b at hA1 and hA3 AR. We confirmed whether the test compounds behave as antagonists by measuring the concentration change in cAMP in the presence of a full agonist 5-N-ethylcarboxamido adenosine (NECA) using antagonist mode assays. We also confirmed whether the test compounds could behave as agonists by comparing the relative percentage activation of NECA using agonist mode assays.
(§2) hA1 and hA3 AR functional experiments were carried out in CHO-A1 and CHO-A3#18 cell line, respectively. The day before the assay, the cells were seeded on the 96-well culture plate (Falcon 353072). The cells were washed with wash buffer (Nutrient Mixture F12 Ham’s (Sigma N6658) for hA1 AR; Dulbecco’s modified eagle’s medium nutrient mixture F-12 ham (Sigma D8062) for hA3 AR; 25 mM Hepes; pH = 7.4). Wash buffer was replaced by incubation buffer (Mixture F12 Ham’s (Sigma N6658) for hA1 AR; Dulbecco’s modified eagle’s medium nutrient mixture F-12 ham (Sigma D8062) for hA3 AR; 25 mM Hepes, 20 µM Rolipram (Sigma R6520); pH = 7.4). […] After incubation, the amount of cAMP was determined using cAMP Biotrak Enzyme immunoassay (EIA) System Kit (GE Healthcare RPN225).

For assay [2], the target named is T1, hA1 AR. Nature of the assay: cAMP accumulation assay, agonist mode, hA1 AR. Particulars: relative to NECA, CHO-A1 cells.
From the text: as §1
(§3) hA1 and hA3 AR functional experiments were carried out in CHO-A1 and CHO-A3#18 cell line, respectively. The day before the assay, the cells were seeded on the 96-well culture plate (Falcon 353072). The cells were washed with wash buffer (Mixture F12 Ham’s (Sigma N6658) for hA1 AR; Dulbecco’s modified eagle’s medium nutrient mixture F-12 ham (Sigma D8062) for hA3 AR; 25mM Hepes; pH = 7.4). Wash buffer was replaced by incubation buffer (Mixture F12 Ham’s (Sigma N6658) for hA1 AR; Dulbecco’s modified eagle’s medium nutrient mixture F-12 ham (Sigma D8062) for hA3 AR; 25 mM Hepes, 20 µM Rolipram (Sigma R6520); pH = 7.4). The cells were pre-incubated at 37 °C for 15 min. […] After incubation, the amount of cAMP was determined using cAMP Biotrak Enzyme immunoassay (EIA) System Kit (GE Healthcare RPN225).

In assay [3] the target is T2, hA3 AR (Homo sapiens, UniProt P0DMS8).
T2 sequence (P0DMS8 1-318): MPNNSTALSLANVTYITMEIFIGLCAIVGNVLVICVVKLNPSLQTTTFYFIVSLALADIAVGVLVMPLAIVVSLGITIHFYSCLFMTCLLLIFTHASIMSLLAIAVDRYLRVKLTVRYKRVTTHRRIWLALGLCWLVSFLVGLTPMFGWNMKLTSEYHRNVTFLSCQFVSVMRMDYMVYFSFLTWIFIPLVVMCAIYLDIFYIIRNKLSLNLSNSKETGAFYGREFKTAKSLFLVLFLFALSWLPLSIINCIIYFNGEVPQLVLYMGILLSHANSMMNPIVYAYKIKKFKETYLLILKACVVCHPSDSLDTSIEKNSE
Nature of the assay: cAMP accumulation assay, antagonist mode, hA3 AR. Also on record: expressed in transfected cells. Particulars: in presence of NECA, CHO-A3#18 cells.
From the text: as §1, §2

Assay [4] has as its target T2, hA3 AR. The assay is described as follows: cAMP accumulation assay, agonist mode, hA3 AR. Set-up: expressed in transfected cells. Particulars: relative to NECA, CHO-A3#18 cells.
From the text: as §1, §3

On to `COc1cc(Nc2nc(N)nc(-c3ccc(O)cc3)n2)ccc1Cl` [Compound 9c, 4-{4-amino-6-[(4-chloro-3-methoxyphenyl)amino]-1,3,5-triazin-2-yl}phenol], for which the viability at 25 µM with A549 cells turned out to be 59.9%.
With `COc1ccc(-c2nc(N)nc(Nc3ccc(OC)c(F)c3)n2)cc1` [Compound 11a, N^2-(3-fluoro-4-methoxyphenyl)-6-(4-methoxyphenyl)-1,3,5-triazine-2,4-diamine], the “Percentage inhibition in antagonist mode, hA1 AR” value at hA1 AR [1] worked out at 1%. Besides, on hA1 AR [2], the “Percentage activation in agonist mode, hA1 AR” value is recorded as 11%. The “Percentage inhibition in antagonist mode, hA3 AR” value at hA3 AR [3] is reported as 77%. Also, at hA3 AR [4], the “Percentage activation in agonist mode, hA3 AR” value worked out at 17%.
In the case of `COc1ccc(Nc2nc(N)nc(-c3ccc(F)cc3)n2)cc1F` [Compound 11b, N^2-(3-fluoro-4-methoxyphenyl)-6-(4-fluorophenyl)-1,3,5-triazine-2,4-diamine], the “Percentage inhibition in antagonist mode, hA1 AR” value at hA1 AR [1] was 60%. For the same molecule, the “Percentage activation in agonist mode, hA1 AR” value at hA1 AR [2] is 23%. Moreover, at hA3 AR [3], the “Percentage inhibition in antagonist mode, hA3 AR” value is recorded as 88%. Further, at hA3 AR [4], the “Percentage activation in agonist mode, hA3 AR” value is reported as 6%.

Values taken from paper PMC9268102, “Design, Synthesis and Biological Evaluation of 1,3,5-Triazine Derivatives Targeting hA1 and hA3 Adenosine Receptor” (Molecules, 2022).
